Patent US20090298780A1, “Methods To Produce Lung Surfactant Formulations Via Lyophilization And Formulations And Uses Thereof” (priority 2004, published 2009)
In brackets after ≈: the same amount, converted by molar mass.

What was measured:
[1] = Individual component solubility in t-butanol/water solutions (HPLC); settings: about 37° C.
Description: Aliquots of each lipid and peptide were accurately weighed into 1.5 ml Eppendorf tubes. […] To each tube 0.2 ml of solvent was added. Each tube was vortexed and then bath sonicated for several minutes to facilitate dissolution. Samples were then placed in a 37° C. bath for approximately 30 minutes and then removed and placed on the counter for up to 30 minutes. […] Three independent Eppendorf tubes were prepared and tested for each solute-solvent combination. Visual observations were made of each tube as to whether they appeared a) clear (i.e., apparently fully soluble), b) to contain non-dissolved material, or c) indeterminate. Small aliquots of each tube were then taken, diluted in the HPLC running buffer, and analyzed by HPLC. HPLC was performed using a CIS column by established methods.

[2] = Achievable dissolution concentrations of individual components in 60% TBA cosolvent without NaCl; format: physicochemical; settings: 60% TBA without NaCl; for Measured Concentration (mg/ml) AVG: average of 3, room temperature; for Measured Concentration (mg/ml) 1: replicate 1; for Measured Concentration (mg/ml) 2: replicate 2; for Measured Concentration (mg/ml) 3: replicate 3

CCCCCCCC/C=C\CCCCCCCC(=O)O[C@H](COC(=O)CCCCCCCCCCCCCCC)COP(=O)(O)OCC(O)CO (stereo partly drawn) [POPG, palmitoyloleoyl phosphatidylglycerol]
Solubility (mg/ml) 50% ([1]; 50% t-butanol/water): >47 mg/mL
Solubility (mg/ml) 80% ([1]; 80% t-butanol/water): >119 mg/mL
Solubility (mg/ml) 90% ([1]; 90% t-butanol/water): >160 mg/mL
Solubility (mg/ml) 95% ([1]; 95% t-butanol/water): 34 mg/mL (≈ 45.4 mM)
Solubility (mg/ml) 97.5% ([1]; 97.5% t-butanol/water): 20 mg/mL (≈ 26.7 mM)
Solubility (mg/ml) 99% ([1]; 99% t-butanol/water): <5 mg/mL
Solubility (mg/ml) 100% ([1]; 100% t-butanol): <5 mg/mL
Measured Concentration (mg/ml) AVG [2]: 290.9 mg/mL
Measured Concentration (mg/ml) 1 [2]: 298.4 mg/mL
Measured Concentration (mg/ml) 2 [2]: 283.7 mg/mL
Measured Concentration (mg/ml) 3 [2]: 290.6 mg/mL

CCCCCCCCCCCCCCCC(=O)OC[C@H](COP(=O)([O-])OCC[N+](C)(C)C)OC(=O)CCCCCCCCCCCCCCC [DPPC, dipalmitoyl phosphatidylcholine]
Measured Concentration (mg/ml) AVG [2]: 35.0 mg/mL
Measured Concentration (mg/ml) 1 [2]: 34.8 mg/mL
Measured Concentration (mg/ml) 2 [2]: 35.0 mg/mL
Measured Concentration (mg/ml) 3 [2]: 35.2 mg/mL
